Measurements published in PubChem BioAssay (NCI).
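All cell lines were grown in 96-well plates and treated with compound for 48 hours. TGI: total growth inhibition.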

Legend:
Test in all cases: DTP human tumour cell line panel, 48 h
MALME-3M melanoma = tested on: MALME-3M melanoma
HL-60(TB) leukemia = tested on: HL-60(TB) leukemia
UO-31 renal = tested on: UO-31 renal
EKVX NSCLC = tested on: EKVX NSCLC
HCT-15 colon = tested on: HCT-15 colon
M14 melanoma = tested on: M14 melanoma
CAKI-1 renal = tested on: CAKI-1 renal
MDA-MB-231 breast = tested on: MDA-MB-231 breast
CCRF-CEM leukemia = tested on: CCRF-CEM leukemia
SR leukemia = tested on: SR leukemia
UACC-62 melanoma = tested on: UACC-62 melanoma
SNB-19 CNS = tested on: SNB-19 CNS
SF-295 CNS = tested on: SF-295 CNS
PC-3 prostate = tested on: PC-3 prostate
786-0 renal = tested on: 786-0 renal
K-562 leukemia = tested on: K-562 leukemia
A498 renal = tested on: A498 renal
HCC-2998 colon = tested on: HCC-2998 colon
RXF 393 renal = tested on: RXF 393 renal
COLO 205 colon = tested on: COLO 205 colon
SF-539 CNS = tested on: SF-539 CNS
HOP-92 NSCLC = tested on: HOP-92 NSCLC
MDA-N = tested on: MDA-N
NCI/ADR-RES ovarian = tested on: NCI/ADR-RES ovarian
SK-MEL-28 melanoma = tested on: SK-MEL-28 melanoma
T-47D breast = tested on: T-47D breast
NCI-H522 lung = tested on: NCI-H522 lung
HS 578T breast = tested on: HS 578T breast
MDA-MB-435 = tested on: MDA-MB-435
MCF7 breast = tested on: MCF7 breast
SW-620 colon = tested on: SW-620 colon
HOP-62 NSCLC = tested on: HOP-62 NSCLC
SK-MEL-2 melanoma = tested on: SK-MEL-2 melanoma
NCI-H226 lung = tested on: NCI-H226 lung
HT29 colon = tested on: HT29 colon
MOLT-4 leukemia = tested on: MOLT-4 leukemia
U251 CNS = tested on: U251 CNS
NCI-H23 lung = tested on: NCI-H23 lung
KM12 colon = tested on: KM12 colon
RPMI-8226 leukemia = tested on: RPMI-8226 leukemia
TK-10 renal = tested on: TK-10 renal
SN12C renal = tested on: SN12C renal
NCI-H460 lung = tested on: NCI-H460 lung
SK-OV-3 ovarian = tested on: SK-OV-3 ovarian
OVCAR-3 ovarian = tested on: OVCAR-3 ovarian
HCT-116 colon = tested on: HCT-116 colon
DU-145 prostate = tested on: DU-145 prostate
SNB-75 CNS = tested on: SNB-75 CNS
ACHN renal = tested on: ACHN renal
A549 NSCLC = tested on: A549 NSCLC
UACC-257 melanoma = tested on: UACC-257 melanoma
OVCAR-8 ovarian = tested on: OVCAR-8 ovarian
SK-MEL-5 melanoma = tested on: SK-MEL-5 melanoma
OVCAR-4 ovarian = tested on: OVCAR-4 ovarian
OVCAR-5 ovarian = tested on: OVCAR-5 ovarian
SF-268 CNS = tested on: SF-268 CNS
BT-549 breast = tested on: BT-549 breast
IGROV1 ovarian = tested on: IGROV1 ovarian

Structure (SMILES): Clc1c2ncccc2cc2n[nH]nc12
- TGI (MALME-3M melanoma): > 100 µM
- TGI (HL-60(TB) leukemia): > 100 µM
- TGI (UO-31 renal): > 100 µM
- TGI (EKVX NSCLC): > 100 µM
- TGI (HCT-15 colon): > 100 µM
- TGI (M14 melanoma): > 100 µM
- TGI (CAKI-1 renal): > 100 µM
- TGI (MDA-MB-231 breast): > 100 µM
- TGI (CCRF-CEM leukemia): > 100 µM
- TGI (SR leukemia): > 100 µM
- TGI (UACC-62 melanoma): > 100 µM
- TGI (SNB-19 CNS): > 100 µM
- TGI (SF-295 CNS): > 100 µM
- TGI (PC-3 prostate): > 100 µM
- TGI (786-0 renal): > 100 µM
- TGI (K-562 leukemia): > 100 µM
- TGI (A498 renal): > 100 µM
- TGI (HCC-2998 colon): > 100 µM
- TGI (RXF 393 renal): > 100 µM
- TGI (COLO 205 colon): > 100 µM
- TGI (SF-539 CNS): > 100 µM
- TGI (HOP-92 NSCLC): > 100 µM
- TGI (MDA-N): > 100 µM
- TGI (NCI/ADR-RES ovarian): > 100 µM
- TGI (SK-MEL-28 melanoma): > 100 µM
- TGI (T-47D breast): > 100 µM
- TGI (NCI-H522 lung): > 100 µM
- TGI (HS 578T breast): > 100 µM
- TGI (MDA-MB-435): > 100 µM
- TGI (MCF7 breast): > 100 µM
- TGI (SW-620 colon): > 100 µM
- TGI (HOP-62 NSCLC): > 100 µM
- TGI (SK-MEL-2 melanoma): > 100 µM
- TGI (NCI-H226 lung): > 100 µM
- TGI (HT29 colon): > 100 µM
- TGI (MOLT-4 leukemia): 77.1 µM
- TGI (U251 CNS): > 100 µM
- TGI (NCI-H23 lung): > 100 µM
- TGI (KM12 colon): > 100 µM
- TGI (RPMI-8226 leukemia): > 100 µM
- TGI (TK-10 renal): > 100 µM
- TGI (SN12C renal): > 100 µM
- TGI (NCI-H460 lung): > 100 µM
- TGI (SK-OV-3 ovarian): > 100 µM
- TGI (OVCAR-3 ovarian): > 100 µM
- TGI (HCT-116 colon): > 100 µM
- TGI (DU-145 prostate): > 100 µM
- TGI (SNB-75 CNS): > 100 µM
- TGI (ACHN renal): > 100 µM
- TGI (A549 NSCLC): > 100 µM
- TGI (UACC-257 melanoma): > 100 µM
- TGI (OVCAR-8 ovarian): > 100 µM
- TGI (SK-MEL-5 melanoma): > 100 µM
- TGI (OVCAR-4 ovarian): > 100 µM
- TGI (OVCAR-5 ovarian): > 100 µM
- TGI (SF-268 CNS): > 100 µM
- TGI (BT-549 breast): > 100 µM
- TGI (IGROV1 ovarian): > 100 µM

Structure (SMILES): Cc1cc(=O)[nH]c(S(=O)(=O)NC(=S)Nc2ccc(Cl)cc2)n1
- TGI (MALME-3M melanoma): > 100 µM
- TGI (HL-60(TB) leukemia): > 100 µM
- TGI (UO-31 renal): > 100 µM
- TGI (EKVX NSCLC): > 100 µM
- TGI (HCT-15 colon): > 100 µM
- TGI (M14 melanoma): > 100 µM
- TGI (CAKI-1 renal): > 100 µM
- TGI (MDA-MB-231 breast): > 100 µM
- TGI (CCRF-CEM leukemia): > 100 µM
- TGI (SR leukemia): > 100 µM
- TGI (UACC-62 melanoma): > 100 µM
- TGI (SNB-19 CNS): > 100 µM
- TGI (SF-295 CNS): > 100 µM
- TGI (PC-3 prostate): > 100 µM
- TGI (786-0 renal): > 100 µM
- TGI (A498 renal): > 100 µM
- TGI (HCC-2998 colon): > 100 µM
- TGI (RXF 393 renal): > 100 µM
- TGI (COLO 205 colon): > 100 µM
- TGI (SF-539 CNS): > 100 µM
- TGI (HOP-92 NSCLC): > 100 µM
- TGI (MDA-N): > 100 µM
- TGI (NCI/ADR-RES ovarian): > 100 µM
- TGI (SK-MEL-28 melanoma): > 100 µM
- TGI (T-47D breast): > 100 µM
- TGI (NCI-H522 lung): 84.6 µM
- TGI (HS 578T breast): > 100 µM
- TGI (MDA-MB-435): > 100 µM
- TGI (MCF7 breast): > 100 µM
- TGI (SW-620 colon): > 100 µM
- TGI (HOP-62 NSCLC): > 100 µM
- TGI (SK-MEL-2 melanoma): > 100 µM
- TGI (NCI-H226 lung): > 100 µM
- TGI (HT29 colon): > 100 µM
- TGI (MOLT-4 leukemia): > 100 µM
- TGI (U251 CNS): > 100 µM
- TGI (NCI-H23 lung): > 100 µM
- TGI (KM12 colon): > 100 µM
- TGI (RPMI-8226 leukemia): > 100 µM
- TGI (TK-10 renal): > 100 µM
- TGI (SN12C renal): > 100 µM
- TGI (NCI-H460 lung): > 100 µM
- TGI (SK-OV-3 ovarian): > 100 µM
- TGI (OVCAR-3 ovarian): > 100 µM
- TGI (HCT-116 colon): > 100 µM
- TGI (DU-145 prostate): > 100 µM
- TGI (SNB-75 CNS): > 100 µM
- TGI (ACHN renal): > 100 µM
- TGI (A549 NSCLC): > 100 µM
- TGI (UACC-257 melanoma): > 100 µM
- TGI (OVCAR-8 ovarian): > 100 µM
- TGI (SK-MEL-5 melanoma): > 100 µM
- TGI (OVCAR-4 ovarian): > 100 µM
- TGI (OVCAR-5 ovarian): > 100 µM
- TGI (SF-268 CNS): > 100 µM
- TGI (BT-549 breast): > 100 µM
- TGI (IGROV1 ovarian): > 100 µM
